Measured values published in patent US20160222024A1, “S-ENANTIOMER OF TETRACYCLIC INDOLE DERIVATIVE AS PBR LIGANDS” (priority 2013, published 2016).
pKi: −log10 of the molar value. Read-outs that look alike come from different tables or passages of the source.

Assays:
TSPO [1] = details: ratio of low affinity site to high affinity site; racemates
Protocol: (§1) Membrane protein was prepared from human platelets obtained from 4 donor whole blood samples. […] Platelet pellets were homogenized in 10 ml buffer 1 (0.32 mM sucrose, 5 mM Tris base, 1 mM MgCl2, pH 7.4, 4° C.). The homogenates were centrifuged at 48,000×g for 15 minutes at 4° C. in a Beckman J2-MC centrifuge. The supernatant was removed and pellets were re-suspended in at least 10 ml buffer 2 (50 mM Tris base, 1 mM MgCl2, pH 7.4, 4° C.) and washed by centrifugation at 48,000×g for 15 mM at 4° C. in buffer 2. Membranes were suspended in 2 ml buffer 2 and the protein concentration was determined using Protein Assay Kit II (Bio Rad cat #500-0002). Aliquots were stored at −80° C. until use.
(§2) Aliquots of membrane suspension were thawed and homogenized with assay buffer 3 (50 mM Tris base, 140 mM NaCl, 1.5 mM MgCl2, 5 mM KCl, 1.5 mM CaCl2, pH 7.4, 37° C.). […] GE180 was diluted at 11 serial dilutions ranging from 100 μM to 1 nM. Total and nonspecific binding assessments were also performed. 160 μL of platelet membranes diluted to 30 μg/mL were added to the assay plate for a final volume of 200 μL/well. Assay plates were incubated at 37° C. for at least one hour with termination of incubation by filtering onto GF/B glass fiber plates (Perkin Elmer; cat #6005177) pre-soaked in 0.1% PEI in saline for 60 minutes. Assay plates were rinsed five to six times with ice cold buffer 4 (50 mM Tris Base, 1.4 mM MgCl2, pH 7.4, 4° C.) on a Perkin Elmer Filtermate 196. Plates were then dried, the bottoms sealed, and 50 μL of MicroScint 20 (Perkin Elmer cat #6013621) was added to each well. After sealing the tops, the plates were allowed to equilibrate for at least 30 minutes and the captured radioactivity was counted on a Perkin Elmer TopCount NTX.

TSPO [2] = target: T1, TSPO (Homo sapiens, UniProt P30536); assay: biochemical
Protocol: as §1, §2

TSPO [3] = target: T2, TSPO (Homo sapiens, UniProt P30536, T147A); assay: biochemical
T2 sequence (P30536 2-169 T147A): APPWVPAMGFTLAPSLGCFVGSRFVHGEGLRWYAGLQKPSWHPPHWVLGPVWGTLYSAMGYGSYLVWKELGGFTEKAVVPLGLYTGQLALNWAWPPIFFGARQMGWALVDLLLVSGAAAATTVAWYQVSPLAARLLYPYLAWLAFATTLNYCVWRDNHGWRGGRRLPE
Protocol: as §1, §2

TSPO [4] = details: ratio of low affinity site to high affinity site; resolved enantiomers
Protocol: (§3) Membrane protein was prepared from human platelets obtained from 4 donor whole blood samples. Two of these donor samples were previously identified as having high affinity and 2 identified as having low affinity based on PBR28 binding affinity. Platelet pellets were homogenized in 10 ml buffer 1 (0.32 mM sucrose, 5 mM Tris base, 1 mM MgCl2, pH 7.4, 4° C.). The homogenates were centrifuged at 48,000×g for 15 minutes at 4° C. in a Beckman J2-MC centrifuge. The supernatant was removed and pellets were re-suspended in at least 10 ml buffer 2 (50 mM Tris base, 1 mM MgCl2, pH 7.4, 4° C.) and washed by centrifugation at 48,000×g for 15 mM at 4° C. in buffer 2. Membranes were suspended in 2 ml buffer 2 and the protein concentration was determined using Protein Assay Kit II (Bio Rad cat #500-0002). Aliquots were stored at −80° C. until use.
(§4) Aliquots of membrane suspension were thawed and homogenized with assay buffer 3 (50 mM Tris base, 140 mM NaCl, 1.5 mM MgCl2, 5 mM KCl, 1.5 mM CaCl2, pH 7.4, 37° C.). […] Compound 1 was diluted on a Beckman Biomek 2000 workstation at 11 serial dilutions ranging from 1 μM to 0.01 nM. GE180 was diluted at 11 serial dilutions ranging from 100 μM to 1 nM. Total and nonspecific binding assessments were also performed. 160 μL of platelet membranes diluted to 30 μg/mL were added to the assay plate for a final volume of 200 μL/well. Assay plates were incubated at 37° C. for at least one hour with termination of incubation by filtering onto GF/B glass fiber plates (Perkin Elmer; cat #6005177) pre-soaked in 0.1% PEI in saline for 60 minutes. Assay plates were rinsed five to six times with ice cold buffer 4 (50 mM Tris Base, 1.4 mM MgCl2, pH 7.4, 4° C.) on a Perkin Elmer Filtermate 196. Plates were then dried, the bottoms sealed, and 50 μL of MicroScint 20 (Perkin Elmer cat #6013621) was added to each well. After sealing the tops, the plates were allowed to equilibrate for at least 30 minutes and the captured radioactivity was counted on a Perkin Elmer TopCount NTX.

TSPO [5] = target: T1, TSPO; assay: biochemical; remark: listed apart in the source
Protocol: as §3, §4

TSPO [6] = target: T2, TSPO; assay: biochemical; remark: listed apart in the source
Protocol: as §3, §4

TSPO [7] = details: in vitro assay; LABs compared with HABs; cited from earlier work
TSPO [8] = details: compared with [11C]PBR28; cited from earlier work

T1 sequence (P30536 2-169): as the sequence (P30536 2-169 T147A) above, with A146T counted along it

Row | pKi (TSPO [5]) | pKi (TSPO [6]) | Structure (SMILES) | Low:High affinity ratio (TSPO [4]) | further results
1 |  |  | CCN(CC)C(=O)C1Sc2ccccc2-c2c1c1c(OC)cccc1n2CCF (racemic) [Compound 1, N,N-diethyl-11-(2-fluoroethyl)-7-methoxy-6,11-dihydrothiochromeno[4,3-b]indole-6-carboxamide] |  | Low:High affinity ratio (TSPO [1]): 9.87; pKi (TSPO [2]): 9.29; pKi (TSPO [3]): 10.30
2 |  |  | CCN(CC)C(=O)[C@H]1CCCc2c1c1c(OC)cccc1n2CCF (stereo in doubt) [GE180, 9-(2-Fluoro-ethyl)-5-methoxy-2,3,4,9-tetrahydro-1H-carbazole-4-carboxylic acid diethylamide] | 3 | Low:High affinity ratio (TSPO [1]): 15.44
3 | 7.51 | 7.82 | CCN(CC)C(=O)[C@@H]1Sc2ccccc2-c2c1c1ccc(OC)cc1n2CCF [Compound 1 E1] | 2 | 
4 | 8.40 | 8.52 | CCN(CC)C(=O)[C@H]1Sc2ccccc2-c2c1c1ccc(OC)cc1n2CC[18F] [Compound 1 E2] | 1 | 
5 | 6.93 | 8.40 | COc1ccccc1CN(C(C)=O)c1cnccc1Oc1ccccc1 [PBR28, N-(2-methoxybenzyl)-N-(4-phenoxypyridin-3-yl)acetamide] | 28 | 
6 |  |  | COc1ccccc1CN(C(C)=O)c1cnccc1Oc1ccccc1 [[^3H]PBR28] |  | lower TSPO affinity in LABs than in HABs (TSPO [7]): more than 10 fold
7 |  |  | CCC(C)N(C)C(=O)c1cc2ccccc2c(-c2ccccc2Cl)n1 (stereo not shown) [[^11C]PK11195] |  | in vivo specific binding in monkey brain, lower than that reported for [11C]PBR28 (TSPO [8]): ~80 fold
